Assay results published in the supplement of paper PMC8617591.

What was measured:
[1] = system: Mycobacterium tuberculosis Erdman (autoluminescent); assay: total FIC50 (Loewe) at 50% inhibition, three-drug combination (log2); higher = more antagonistic
Procedure: (§1)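 DiaMOND equipotent three-drug combination dose responses (10 doses, 1.5- or 2-fold spacing, centred on IC90) against autoluminescent M. tuberculosis Erdman in 8 in vitro models. Read-out is OD600, or luminescence for the intracellular and dormancy models, normalised to untreated wells. Hill-fit Einf, AUC25 and GRinf are potency metrics; FIC50 and FIC90 are total Loewe fractional inhibitory concentrations as log2 (negative = synergy).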

[2] = system: Mycobacterium tuberculosis Erdman (autoluminescent); assay: total FIC90 (Loewe) at 90% inhibition, three-drug combination (log2); higher = more antagonistic
Procedure: as §1

[3] = system: Mycobacterium tuberculosis Erdman (autoluminescent); assay: Einf, fitted maximum growth inhibition of three-drug combination (fraction); higher = stronger maximal inhibition
Procedure: as §1

[4] = system: Mycobacterium tuberculosis Erdman (autoluminescent); assay: AUC25, normalised area under dose response up to IC25 (three-drug combination) (fraction (0-1)); higher = more potent at low dose
Procedure: as §1

[5] = system: Mycobacterium tuberculosis Erdman (autoluminescent); assay: GRinf, maximum normalised growth rate inhibition (three-drug combination) (unitless (-1 to 1)); higher = less effect (negative = killing)
Procedure: as §1

[6] = in vitro model: acidic pH 5.7, time point: constant (~7 days, model-specific)
[7] = in vitro model: acidic pH 5.7, time point: terminal (~4-5 doublings, model-specific)
[8] = in vitro model: butyrate, time point: constant (~7 days, model-specific)
[9] = in vitro model: butyrate, time point: terminal (~4-5 doublings, model-specific)
[10] = in vitro model: cholesterol 0.05 mM, time point: constant (~7 days, model-specific)
[11] = in vitro model: cholesterol 0.05 mM, time point: terminal (~4-5 doublings, model-specific)
[12] = in vitro model: cholesterol-high 0.2 mM, time point: constant (~7 days, model-specific)
[13] = in vitro model: cholesterol-high 0.2 mM, time point: terminal (~4-5 doublings, model-specific)
[14] = in vitro model: dormancy (butyrate + nitrate, low O2), time point: constant (~7 days, model-specific)
[15] = in vitro model: dormancy (butyrate + nitrate, low O2), time point: terminal (~4-5 doublings, model-specific)
[16] = in vitro model: standard 7H9 glycerol, time point: constant = terminal
[17] = in vitro model: valerate, time point: constant (~7 days, model-specific)
[18] = in vitro model: valerate, time point: terminal (~4-5 doublings, model-specific)
[19] = in vitro model: intracellular J774, time point: constant = terminal

CC(C)/N=c1\cc2n(-c3ccc(Cl)cc3)c3ccccc3nc-2cc1Nc1ccc(Cl)cc1 [clofazimine] + CO[C@H]1/C=C/O[C@@]2(C)Oc3c(C)c(O)c4c(O)c(c(/C=N/N5CCN(C6CCCC6)CC5)c(O)c4c3C2=O)NC(=O)/C(C)=C\C=C\[C@H](C)[C@H](O)[C@@H](C)[C@@H](O)[C@@H](C)[C@H](OC(C)=O)[C@@H]1C [rifapentine] + CO[C@H]1/C=C/O[C@@]2(C)Oc3c(C)c(O)c4c(O)c(c(/C=N/N5CCN(C)CC5)c(O)c4c3C2=O)NC(=O)/C(C)=C\C=C\[C@H](C)[C@H](O)[C@@H](C)[C@@H](O)[C@@H](C)[C@H](OC(C)=O)[C@@H]1C [rifampicin]
total FIC50 [1, 6]: 0.102
total FIC50 [1, 7]: 0.133
total FIC50 [1, 8]: 0.282
total FIC50 [1, 9]: 0.19
total FIC50 [1, 10]: 0.554
total FIC50 [1, 11]: 1.05
total FIC50 [1, 12]: 0.692
total FIC50 [1, 13]: 0.952
total FIC50 [1, 14]: 0.158
total FIC50 [1, 15]: -0.183
total FIC50 [1, 16]: 0.00896
total FIC50 [1, 17]: 0.944
total FIC50 [1, 18]: 0.559
total FIC90 [2, 7]: -0.159
total FIC90 [2, 8]: 0.128
total FIC90 [2, 9]: 0.285
total FIC90 [2, 11]: 0.206
total FIC90 [2, 13]: 0.73
total FIC90 [2, 14]: -0.937
total FIC90 [2, 15]: 0.154
total FIC90 [2, 19]: 0.0463
total FIC90 [2, 16]: 1.54
total FIC90 [2, 18]: 0.577
Einf [3, 6]: 0.855
Einf [3, 7]: 0.975
Einf [3, 8]: 0.935
Einf [3, 9]: 0.967
Einf [3, 10]: 0.619
Einf [3, 11]: 0.865
Einf [3, 12]: 0.887
Einf [3, 13]: 0.999
Einf [3, 14]: 0.965
Einf [3, 15]: 0.994
Einf [3, 19]: 0.956
Einf [3, 16]: 0.907
Einf [3, 17]: 0.861
Einf [3, 18]: 0.925
AUC25 [4, 6]: 0.0846
AUC25 [4, 7]: 0.076
AUC25 [4, 8]: 0.115
AUC25 [4, 9]: 0.0924
AUC25 [4, 10]: 0.13
AUC25 [4, 11]: 0.098
AUC25 [4, 12]: 0.105
AUC25 [4, 13]: 0.0914
AUC25 [4, 14]: 0.0771
AUC25 [4, 15]: 0.067
AUC25 [4, 16]: 0.0923
AUC25 [4, 17]: 0.0792
AUC25 [4, 18]: 0.0548
GRinf [5, 6]: -0.0603
GRinf [5, 7]: -0.1
GRinf [5, 8]: -0.0887
GRinf [5, 9]: -0.0699
GRinf [5, 10]: -0.094
GRinf [5, 11]: 0.0942
GRinf [5, 12]: -0.333
GRinf [5, 13]: -0.983
GRinf [5, 14]: 0.0628
GRinf [5, 15]: -0.464
GRinf [5, 19]: -0.293
GRinf [5, 16]: 0.0923
GRinf [5, 17]: 0.00522
GRinf [5, 18]: 0.043

CC(C)/N=c1\cc2n(-c3ccc(Cl)cc3)c3ccccc3nc-2cc1Nc1ccc(Cl)cc1 [clofazimine] + COc1c(N2C[C@@H]3CCCN[C@@H]3C2)c(F)cc2c(=O)c(C(=O)O)cn(C3CC3)c12 [moxifloxacin] + CO[C@H]1/C=C/O[C@@]2(C)Oc3c(C)c(O)c4c(O)c(c(/C=N/N5CCN(C6CCCC6)CC5)c(O)c4c3C2=O)NC(=O)/C(C)=C\C=C\[C@H](C)[C@H](O)[C@@H](C)[C@@H](O)[C@@H](C)[C@H](OC(C)=O)[C@@H]1C [rifapentine]
total FIC50 [1, 6]: 0.757
total FIC50 [1, 7]: 0.662
total FIC50 [1, 8]: 0.683
total FIC50 [1, 9]: 0.677
total FIC50 [1, 10]: 0.506
total FIC50 [1, 11]: 1.24
total FIC50 [1, 12]: 0.36
total FIC50 [1, 13]: 0.593
total FIC50 [1, 14]: 0.695
total FIC50 [1, 15]: 0.807
total FIC50 [1, 16]: 0.103
total FIC50 [1, 17]: 0.866
total FIC50 [1, 18]: 0.401
total FIC90 [2, 7]: 0.776
total FIC90 [2, 8]: 0.815
total FIC90 [2, 9]: 0.878
total FIC90 [2, 11]: 0.476
total FIC90 [2, 12]: 0.939
total FIC90 [2, 13]: 0.687
total FIC90 [2, 14]: 0.16
total FIC90 [2, 15]: 1.55
total FIC90 [2, 19]: 0.705
total FIC90 [2, 16]: 0.69
total FIC90 [2, 18]: 0.131
Einf [3, 6]: 0.791
Einf [3, 7]: 0.994
Einf [3, 8]: 0.951
Einf [3, 9]: 0.976
Einf [3, 10]: 0.651
Einf [3, 11]: 0.826
Einf [3, 12]: 0.933
Einf [3, 13]: 1
Einf [3, 14]: 0.916
Einf [3, 15]: 0.985
Einf [3, 19]: 0.896
Einf [3, 16]: 0.961
Einf [3, 17]: 0.922
Einf [3, 18]: 0.937
AUC25 [4, 6]: 0.0597
AUC25 [4, 7]: 0.0785
AUC25 [4, 8]: 0.109
AUC25 [4, 9]: 0.0865
AUC25 [4, 10]: 0.117
AUC25 [4, 11]: 0.106
AUC25 [4, 12]: 0.122
AUC25 [4, 13]: 0.0999
AUC25 [4, 14]: 0.0884
AUC25 [4, 15]: 0.0815
AUC25 [4, 16]: 0.11
AUC25 [4, 17]: 0.121
AUC25 [4, 18]: 0.0636
GRinf [5, 6]: 0.0664
GRinf [5, 7]: -0.157
GRinf [5, 8]: -0.179
GRinf [5, 9]: -0.126
GRinf [5, 10]: -0.0835
GRinf [5, 11]: 0.0322
GRinf [5, 12]: -0.651
GRinf [5, 13]: -0.936
GRinf [5, 14]: 0.189
GRinf [5, 15]: -0.35
GRinf [5, 19]: -0.177
GRinf [5, 16]: -0.153
GRinf [5, 17]: -0.0961
GRinf [5, 18]: 0.0037

CC(C)/N=c1\cc2n(-c3ccc(Cl)cc3)c3ccccc3nc-2cc1Nc1ccc(Cl)cc1 [clofazimine] + COc1c(N2C[C@@H]3CCCN[C@@H]3C2)c(F)cc2c(=O)c(C(=O)O)cn(C3CC3)c12 [moxifloxacin] + CO[C@H]1/C=C/O[C@@]2(C)Oc3c(C)c(O)c4c(O)c(c(/C=N/N5CCN(C)CC5)c(O)c4c3C2=O)NC(=O)/C(C)=C\C=C\[C@H](C)[C@H](O)[C@@H](C)[C@@H](O)[C@@H](C)[C@H](OC(C)=O)[C@@H]1C [rifampicin]
total FIC50 [1, 6]: 0.584
total FIC50 [1, 7]: 0.552
total FIC50 [1, 8]: 0.632
total FIC50 [1, 9]: 0.441
total FIC50 [1, 10]: 1.52
total FIC50 [1, 11]: 1.22
total FIC50 [1, 12]: 1.08
total FIC50 [1, 13]: 1.33
total FIC50 [1, 14]: 0.282
total FIC50 [1, 15]: -0.142
total FIC50 [1, 16]: -0.17
total FIC50 [1, 17]: 1.12
total FIC50 [1, 18]: 0.91
total FIC90 [2, 7]: 0.413
total FIC90 [2, 8]: 0.476
total FIC90 [2, 9]: 0.673
total FIC90 [2, 11]: -0.407
total FIC90 [2, 12]: 1.19
total FIC90 [2, 13]: 1.21
total FIC90 [2, 14]: -0.619
total FIC90 [2, 15]: 1.27
total FIC90 [2, 19]: 0.881
total FIC90 [2, 18]: 1.97
Einf [3, 6]: 0.794
Einf [3, 7]: 0.984
Einf [3, 8]: 0.961
Einf [3, 9]: 0.979
Einf [3, 10]: 0.622
Einf [3, 11]: 0.89
Einf [3, 12]: 0.887
Einf [3, 13]: 1
Einf [3, 14]: 0.924
Einf [3, 15]: 0.991
Einf [3, 19]: 0.971
Einf [3, 16]: 0.975
Einf [3, 17]: 0.907
Einf [3, 18]: 0.948
AUC25 [4, 6]: 0.0543
AUC25 [4, 7]: 0.0718
AUC25 [4, 8]: 0.118
AUC25 [4, 9]: 0.0964
AUC25 [4, 10]: 0.111
AUC25 [4, 11]: 0.0951
AUC25 [4, 12]: 0.119
AUC25 [4, 13]: 0.0965
AUC25 [4, 14]: 0.0851
AUC25 [4, 15]: 0.108
AUC25 [4, 16]: 0.128
AUC25 [4, 17]: 0.104
AUC25 [4, 18]: 0.075
GRinf [5, 6]: 0.0586
GRinf [5, 7]: -0.141
GRinf [5, 8]: -0.195
GRinf [5, 9]: -0.129
GRinf [5, 10]: 0.0422
GRinf [5, 11]: -0.0588
GRinf [5, 12]: -0.695
GRinf [5, 13]: -1
GRinf [5, 14]: 0.135
GRinf [5, 15]: -0.361
GRinf [5, 19]: -0.31
GRinf [5, 16]: -0.0863
GRinf [5, 17]: -0.0605
GRinf [5, 18]: 0.0195
